Assay results as given in patent US9493446B2, “Orexin receptor antagonists which are [ortho bi-(hetero-)aryl]-[2-(meta bi-(hetero-)aryl)-pyrrolidin-1-yl]-methanone derivatives” (Actelion Pharmaceuticals Ltd, priority 2012, dated 2016).
Like-named read-outs stand apart in the source and are kept apart here.

Columns and labels:
orexin-1 = orexin-1 (Homo sapiens (Human), UniProt O43613); assay: Intracellular calcium measurement (FLIPR), CHO cells expressing human orexin-1 receptor, 3 nM orexin-A; format: cell-based; conditions: read-out: IC50 OX1
Sequence of orexin-1 (O43613 whole entry): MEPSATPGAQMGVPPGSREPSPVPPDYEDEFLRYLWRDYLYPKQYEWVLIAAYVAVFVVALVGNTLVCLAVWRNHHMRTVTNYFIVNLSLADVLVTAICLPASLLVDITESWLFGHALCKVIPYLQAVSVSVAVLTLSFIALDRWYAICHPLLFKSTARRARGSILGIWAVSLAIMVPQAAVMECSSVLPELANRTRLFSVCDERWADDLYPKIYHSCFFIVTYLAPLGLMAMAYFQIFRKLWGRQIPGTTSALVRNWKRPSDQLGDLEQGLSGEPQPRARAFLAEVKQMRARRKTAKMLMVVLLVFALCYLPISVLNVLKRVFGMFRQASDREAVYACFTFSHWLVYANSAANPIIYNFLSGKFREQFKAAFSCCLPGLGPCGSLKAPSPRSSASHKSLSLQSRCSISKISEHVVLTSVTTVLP
Method in brief: (§1)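 HBSS buffer with 0.1% BSA, NaHCO3 and 20 mM HEPES carries both compounds and agonist. Dye: fluo-4 AM (3 μM) with 5 mM probenecid. Compound exposure 120 min; peak signal scored against uninhibited orexin-A response.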

human orexin-2 receptor = human orexin-2 receptor (Homo sapiens (Human), UniProt O43614); assay: Intracellular calcium measurement (FLIPR), CHO cells expressing human orexin-2 receptor, 3 nM orexin-A; format: cell-based; conditions: read-out: IC50 OX2
Sequence of human orexin-2 receptor (O43614 whole entry): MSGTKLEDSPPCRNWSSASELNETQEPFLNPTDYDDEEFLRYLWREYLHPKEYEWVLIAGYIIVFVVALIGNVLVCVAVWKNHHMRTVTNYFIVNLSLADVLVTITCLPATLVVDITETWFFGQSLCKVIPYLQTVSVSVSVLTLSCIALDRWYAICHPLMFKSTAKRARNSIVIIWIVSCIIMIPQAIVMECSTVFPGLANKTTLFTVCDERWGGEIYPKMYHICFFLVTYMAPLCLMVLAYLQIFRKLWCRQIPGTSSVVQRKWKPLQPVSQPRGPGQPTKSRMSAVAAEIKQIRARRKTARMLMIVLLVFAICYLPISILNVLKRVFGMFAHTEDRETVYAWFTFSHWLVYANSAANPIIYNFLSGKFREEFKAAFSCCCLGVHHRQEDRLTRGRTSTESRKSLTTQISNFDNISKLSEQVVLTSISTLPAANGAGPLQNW
Method in brief: as §1

[1] = CHO cells expressing human orexin-1 receptor, FLIPR, 3 nM orexin-A, geometric mean if determined several times
[2] = CHO cells expressing human orexin-2 receptor, FLIPR, 3 nM orexin-A, geometric mean if determined several times

Question: What does the source list for `Cc1c(F)cccc1-c1nc([C@@H]2CCCN2C(=O)c2ccc(Cl)cc2-n2nccn2)no1` [compound 379]?
Answer: IC50 (orexin-1; [1]): 52 nM; IC50 (human orexin-2 receptor; [2]): 5 nM

Question: Which results are given for `COc1ccc(C)cc1-c1nc([C@@H]2CCCN2C(=O)c2ccc(Cl)cc2-n2nccn2)no1` [compound 381]?
Answer: IC50 (orexin-1; [1]): 136 nM; IC50 (human orexin-2 receptor; [2]): 28 nM

Question: How did the IC50 (orexin-1; [1]) turn out when `COc1cc(C)cc(-c2nc([C@@H]3CCCN3C(=O)c3cc(C)c(C)cc3-n3nccn3)no2)c1` [compound 382, (4,5-Dimethyl-2-[1,2,3]triazol-2-yl-phenyl)-{(S)-2-[5-(3-methoxy-5-methyl-phenyl)-[1,2,4]oxadiazol-3-yl]-pyrrolidin-1-yl}-methanone] was run?
Answer: 10 nM

Question: What about the IC50 (human orexin-2 receptor; [2]) of the same compound?
Answer: 4 nM

Question: `COc1ccc(C)c(-c2nc([C@@H]3CCCN3C(=O)c3cc(C)c(C)cc3-n3nccn3)no2)c1` [compound 383, (4,5-Dimethyl-2-[1,2,3]triazol-2-yl-phenyl)-{(S)-2-[5-(5-methoxy-2-methyl-phenyl)-[1,2,4]oxadiazol-3-yl]-pyrrolidin-1-yl}-methanone] was tested. Which IC50 (orexin-1; [1]) did it give?
Answer: 30 nM

Question: And the IC50 (human orexin-2 receptor; [2])?
Answer: 4 nM

Question: `COc1ccc(C)cc1-c1nc([C@@H]2CCCN2C(=O)c2cc(C)c(C)cc2-n2nccn2)no1` [compound 384, (4,5-Dimethyl-2-[1,2,3]triazol-2-yl-phenyl)-{(S)-2-[5-(2-methoxy-5-methyl-phenyl)-[1,2,4]oxadiazol-3-yl]-pyrrolidin-1-yl}-methanone] was tested. Which IC50 (orexin-1; [1]) did it give?
Answer: 22 nM

Question: What about the IC50 (human orexin-2 receptor; [2]) of the same compound?
Answer: 2 nM

Question: Which results are given for `COc1cc(C)cc(-c2nc([C@@H]3CCCN3C(=O)c3cc(OC)c(C)cc3-n3nccn3)no2)c1` [compound 385, {(S)-2-[5-(3-Methoxy-5-methyl-phenyl)-[1,2,4]oxadiazol-3-yl]-pyrrolidin-1-yl}-(5-methoxy-4-methyl-2-[1,2,3]triazol-2-yl-phenyl)-methanone]?
Answer: IC50 (orexin-1; [1]): 26 nM; IC50 (human orexin-2 receptor; [2]): 8 nM

Question: What does the source list for `COc1ccc(C)c(-c2nc([C@@H]3CCCN3C(=O)c3cc(OC)c(C)cc3-n3nccn3)no2)c1` [compound 386, {(S)-2-[5-(5-Methoxy-2-methyl-phenyl)-[1,2,4]oxadiazol-3-yl]-pyrrolidin-1-yl}-(5-methoxy-4-methyl-2-[1,2,3]triazol-2-yl-phenyl)-methanone]?
Answer: IC50 (orexin-1; [1]): 118 nM; IC50 (human orexin-2 receptor; [2]): 7 nM

Question: For `COc1cc(C(=O)N2CCC[C@H]2c2noc(-c3cc(C)ccc3OC)n2)c(-n2nccn2)cc1C` [compound 387, {(S)-2-[5-(2-Methoxy-5-methyl-phenyl)-[1,2,4]oxadiazol-3-yl]-pyrrolidin-1-yl}-(5-methoxy-4-methyl-2-[1,2,3]triazol-2-yl-phenyl)-methanone], which IC50 (orexin-1; [1]) is on record?
Answer: 57 nM

Question: What about the IC50 (human orexin-2 receptor; [2]) of the same compound?
Answer: 3 nM

Question: `CCc1ccccc1-c1nc([C@@H]2CCCN2C(=O)c2cc(C)ccc2-n2nccn2)no1` [compound 389, {(S)-2-[5-(2-Ethyl-phenyl)-[1,2,4]oxadiazol-3-yl]-pyrrolidin-1-yl}-(5-methyl-2-[1,2,3]triazol-2-yl-phenyl)-methanone] was tested. Which IC50 (orexin-1; [1]) did it give?
Answer: 35 nM

Question: And the IC50 (human orexin-2 receptor; [2])?
Answer: 15 nM

Question: With `Cc1ccc(-n2nccn2)c(C(=O)N2CCC[C@H]2c2noc(-c3cc(C)ccc3C)n2)c1` [compound 390, {(S)-2-[5-(2,5-Dimethyl-phenyl)-[1,2,4]oxadiazol-3-yl]-pyrrolidin-1-yl}-(5-methyl-2-[1,2,3]triazol-2-yl-phenyl)-methanone] as the compound, how does the IC50 (orexin-1; [1]) read?
Answer: 73 nM

Question: What about the IC50 (human orexin-2 receptor; [2]) of the same compound?
Answer: 6 nM

Question: `Cc1ccc(C(=O)N2CCC[C@H]2c2noc(-c3cccc(C)c3C)n2)c(-n2nccn2)c1` [compound 391, {(S)-2-[5-(2,3-Dimethyl-phenyl)-[1,2,4]oxadiazol-3-yl]-pyrrolidin-1-yl}-(4-methyl-2-[1,2,3]triazol-2-yl-phenyl)-methanone] was tested. Which IC50 (orexin-1; [1]) did it give?
Answer: 68 nM

Question: What about the IC50 (human orexin-2 receptor; [2]) of the same compound?
Answer: 14 nM

Question: With `CCc1ccccc1-c1nc([C@@H]2CCCN2C(=O)c2ccc(C)cc2-n2nccn2)no1` [compound 392, {(S)-2-[5-(2-Ethyl-phenyl)-[1,2,4]oxadiazol-3-yl]-pyrrolidin-1-yl}-(4-methyl-2-[1,2,3]triazol-2-yl-phenyl)-methanone] as the compound, how does the IC50 (orexin-1; [1]) read?
Answer: 17 nM

Question: What about the IC50 (human orexin-2 receptor; [2]) of the same compound?
Answer: 17 nM

Question: `Cc1ccc(C)c(-c2nc([C@@H]3CCCN3C(=O)c3ccc(C)cc3-n3nccn3)no2)c1` [compound 393, {(S)-2-[5-(2,5-Dimethyl-phenyl)-[1,2,4]oxadiazol-3-yl]-pyrrolidin-1-yl}-(4-methyl-2-[1,2,3]triazol-2-yl-phenyl)-methanone] was tested. Which IC50 (orexin-1; [1]) did it give?
Answer: 57 nM

Question: What about the IC50 (human orexin-2 receptor; [2]) of the same compound?
Answer: 10 nM

Question: How did the IC50 (orexin-1) turn out when `Cc1cccc(-c2nc([C@@H]3CCCN3C(=O)c3cc(Cl)ccc3-n3nccn3)no2)c1C` [compound 394] was run?
Answer: 134 nM

Question: What about the IC50 (human orexin-2 receptor; [2]) of the same compound?
Answer: 12 nM

Question: What does the source list for `CCc1ccccc1-c1nc([C@@H]2CCCN2C(=O)c2cc(Cl)ccc2-n2nccn2)no1` [compound 395]?
Answer: IC50 (orexin-1): 31 nM; IC50 (human orexin-2 receptor): 10 nM

Question: Which IC50 (orexin-1) does the source give for `Cc1ccc(C)c(-c2nc([C@@H]3CCCN3C(=O)c3cc(Cl)ccc3-n3nccn3)no2)c1` [compound 396] here?
Answer: 134 nM

Question: And the IC50 (human orexin-2 receptor)?
Answer: 15 nM

Question: For `Cc1cccc(-c2nc([C@@H]3CCCN3C(=O)c3ccc(Cl)cc3-n3nccn3)no2)c1C` [compound 397], which IC50 (orexin-1) is on record?
Answer: 85 nM

Question: What about the IC50 (human orexin-2 receptor; [2]) of the same compound?
Answer: 5 nM

Question: For `CCc1ccccc1-c1nc([C@@H]2CCCN2C(=O)c2ccc(Cl)cc2-n2nccn2)no1` [compound 398], which IC50 (orexin-1) is on record?
Answer: 33 nM

Question: What about the IC50 (human orexin-2 receptor; [2]) of the same compound?
Answer: 18 nM

Question: `Cc1ccc(C)c(-c2nc([C@@H]3CCCN3C(=O)c3ccc(Cl)cc3-n3nccn3)no2)c1` [compound 399] was tested. Which IC50 (orexin-1) did it give?
Answer: 77 nM

Question: What about the IC50 (human orexin-2 receptor; [2]) of the same compound?
Answer: 10 nM

Question: How did the IC50 (orexin-1; [1]) turn out when `Cc1cc(C(=O)N2CCC[C@H]2c2noc(-c3cccc(C)c3C)n2)c(-n2nccn2)cc1C` [compound 400, {(S)-2-[5-(2,3-Dimethyl-phenyl)-[1,2,4]oxadiazol-3-yl]-pyrrolidin-1-yl}-(4,5-dimethyl-2-[1,2,3]triazol-2-yl-phenyl)-methanone] was run?
Answer: 36 nM

Question: And the IC50 (human orexin-2 receptor; [2])?
Answer: 4 nM

Question: For `CCc1ccccc1-c1nc([C@@H]2CCCN2C(=O)c2cc(C)c(C)cc2-n2nccn2)no1` [compound 401, (4,5-Dimethyl-2-[1,2,3]triazol-2-yl-phenyl)-{(S)-2-[5-(2-ethyl-phenyl)-[1,2,4]oxadiazol-3-yl]-pyrrolidin-1-yl}-methanone], which IC50 (orexin-1; [1]) is on record?
Answer: 7 nM

Question: What about the IC50 (human orexin-2 receptor; [2]) of the same compound?
Answer: 3 nM

Question: For `Cc1ccc(C)c(-c2nc([C@@H]3CCCN3C(=O)c3cc(C)c(C)cc3-n3nccn3)no2)c1` [compound 402, {(S)-2-[5-(2,5-Dimethyl-phenyl)-[1,2,4]oxadiazol-3-yl]-pyrrolidin-1-yl}-(4,5-dimethyl-2-[1,2,3]triazol-2-yl-phenyl)-methanone], which IC50 (orexin-1; [1]) is on record?
Answer: 164 nM

Question: And the IC50 (human orexin-2 receptor; [2])?
Answer: 2 nM

Question: What does the source list for `COc1cc(C(=O)N2CCC[C@H]2c2noc(-c3cccc(C)c3C)n2)c(-n2nccn2)cc1C` [compound 403, {(S)-2-[5-(2,3-Dimethyl-phenyl)-[1,2,4]oxadiazol-3-yl]-pyrrolidin-1-yl}-(5-methoxy-4-methyl-2-[1,2,3]triazol-2-yl-phenyl)-methanone]?
Answer: IC50 (orexin-1; [1]): 25 nM; IC50 (human orexin-2 receptor; [2]): 2 nM

Question: Which results are given for `CCc1ccccc1-c1nc([C@@H]2CCCN2C(=O)c2cc(OC)c(C)cc2-n2nccn2)no1` [compound 404, {(S)-2-[5-(2-Ethyl-phenyl)-[1,2,4]oxadiazol-3-yl]-pyrrolidin-1-yl}-(5-methoxy-4-methyl-2-[1,2,3]triazol-2-yl-phenyl)-methanone]?
Answer: IC50 (orexin-1; [1]): 23 nM; IC50 (human orexin-2 receptor; [2]): 3 nM

Question: For `COc1cc(C(=O)N2CCC[C@H]2c2noc(-c3cc(C)ccc3C)n2)c(-n2nccn2)cc1C` [compound 405, {(S)-2-[5-(2,5-Dimethyl-phenyl)-[1,2,4]oxadiazol-3-yl]-pyrrolidin-1-yl}-(5-methoxy-4-methyl-2-[1,2,3]triazol-2-yl-phenyl)-methanone], which IC50 (orexin-1; [1]) is on record?
Answer: 33 nM

Question: What about the IC50 (human orexin-2 receptor; [2]) of the same compound?
Answer: 1 nM
